Each compound was assayed against ROCK2 (Homo sapiens (Human), UniProt O75116) (assay: ROCK2 assay (peptide phosphorylation, LABCHIP 3000 Reader)). Conditions: 5 μM ATP, 1.5 μM peptide substrate.
Format: biochemical
Experimental: The effectiveness of compounds of the present invention as ROCK inhibitors can be determined in a 30 μL, assay containing 20 mM HEPES, pH 7.5, 20 mM MgCl2, 0.015% Brij-35, 4 mM DTT, 5 μM ATP and 1.5 μM peptide substrate (FITC-AHA-AKRRRLSSLRA-OH). Compounds were dissolved in DMSO so that the final concentration of DMSO was <2%, and the reaction was initiated with Rho kinase variants. After incubation, the reaction was terminated by the addition of EDTA and the phosphorylated and non-phosphorylated peptides separated using a LABCHIP® 3000 Reader (Caliper Life Sciences). […] Compounds were tested in dose-response format, and the inhibition of kinase activity was calculated at each concentration of compound. The inhibition data were fit using a curve-fitting program to determine the IC50; i.e., the concentration of compound required to inhibit 50% of kinase activity.
Representative Examples were tested in the ROCK2 assay described above and found having ROCK2 inhibitory activity.

ROCK2, sequence (O75116 whole entry, species assumed): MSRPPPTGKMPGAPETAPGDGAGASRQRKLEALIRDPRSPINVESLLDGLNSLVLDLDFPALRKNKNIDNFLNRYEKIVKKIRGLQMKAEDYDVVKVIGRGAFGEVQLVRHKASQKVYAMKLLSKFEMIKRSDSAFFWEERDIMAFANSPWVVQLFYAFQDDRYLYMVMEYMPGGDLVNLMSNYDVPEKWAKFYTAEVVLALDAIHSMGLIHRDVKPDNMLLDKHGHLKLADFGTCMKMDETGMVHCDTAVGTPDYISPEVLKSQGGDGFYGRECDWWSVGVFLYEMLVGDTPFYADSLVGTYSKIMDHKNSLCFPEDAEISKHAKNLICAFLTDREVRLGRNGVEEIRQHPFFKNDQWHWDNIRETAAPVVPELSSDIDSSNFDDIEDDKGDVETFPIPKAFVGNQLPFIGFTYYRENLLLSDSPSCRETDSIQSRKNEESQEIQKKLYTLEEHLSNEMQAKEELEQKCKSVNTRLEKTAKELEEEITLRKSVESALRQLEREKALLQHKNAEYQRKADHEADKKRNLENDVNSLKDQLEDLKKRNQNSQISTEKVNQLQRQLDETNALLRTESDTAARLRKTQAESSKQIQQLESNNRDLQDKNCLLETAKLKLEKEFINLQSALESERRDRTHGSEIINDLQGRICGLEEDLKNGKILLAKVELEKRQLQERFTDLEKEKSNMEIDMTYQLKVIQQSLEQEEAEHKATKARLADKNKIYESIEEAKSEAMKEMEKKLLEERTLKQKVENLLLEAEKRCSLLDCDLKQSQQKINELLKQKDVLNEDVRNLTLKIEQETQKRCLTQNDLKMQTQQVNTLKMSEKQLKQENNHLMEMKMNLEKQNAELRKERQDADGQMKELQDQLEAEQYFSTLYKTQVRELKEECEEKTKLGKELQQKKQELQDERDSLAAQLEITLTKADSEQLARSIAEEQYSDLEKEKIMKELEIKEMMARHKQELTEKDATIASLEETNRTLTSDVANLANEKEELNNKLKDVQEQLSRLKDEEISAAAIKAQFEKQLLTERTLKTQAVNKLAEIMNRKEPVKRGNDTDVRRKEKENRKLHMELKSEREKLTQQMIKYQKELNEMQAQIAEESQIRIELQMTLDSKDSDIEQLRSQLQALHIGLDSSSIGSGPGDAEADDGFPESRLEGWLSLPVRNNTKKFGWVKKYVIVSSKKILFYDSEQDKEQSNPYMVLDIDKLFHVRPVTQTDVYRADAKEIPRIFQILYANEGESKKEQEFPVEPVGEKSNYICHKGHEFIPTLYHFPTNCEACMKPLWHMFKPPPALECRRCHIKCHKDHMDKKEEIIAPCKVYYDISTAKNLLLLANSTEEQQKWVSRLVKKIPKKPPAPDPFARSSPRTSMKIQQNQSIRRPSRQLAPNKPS

Row | SMILES | IC50 [nM]
1 | COc1cc(-n2ncn(Cc3ccc(F)cc3)c2=O)ccc1-c1cn[nH]c1 [Example 38, 4-(4-fluorobenzyl)-1-(3-methoxy-4-(1H-pyrazol-4-yl)phenyl)-1H-1,2,4-triazol-5(4H)-one] | 50 to 250
2 | CCc1cc(-n2ncn(Cc3cccc(C#N)c3)c2=O)ccc1-c1cn[nH]c1 [Example 41, 3-((1-(3-ethyl-4-(1H-pyrazol-4-yl)phenyl)-5-oxo-1H-1,2,4-triazol-4(5H)-yl)methyl)benzonitrile] | 250 to 2000
3 | CCc1cc(-n2ncn(Cc3ccccc3F)c2=O)ccc1-c1cn[nH]c1 [Example 42, 1-(3-ethyl-4-(1H-pyrazol-4-yl)phenyl)-4-(2-fluorobenzyl)-1H-1,2,4-triazol-5(4H)-one] | 250 to 2000
4 | CCc1cc(-n2ncn(Cc3ccc(F)cc3)c2=O)ccc1-c1cn[nH]c1 [Example 43, 1-(3-ethyl-4-(1H-pyrazol-4-yl)phenyl)-4-(4-fluorobenzyl)-1H-1,2,4-triazol-5(4H)-one] | 250 to 2000
5 | CCc1cc(-n2ncn(Cc3cccc(OC(F)F)c3)c2=O)ccc1-c1cn[nH]c1 [Example 46, 4-(3-(difluoromethoxy)benzyl)-1-(3-ethyl-4-(1H-pyrazol-4-yl)phenyl)-1H-1,2,4-triazol-5(4H)-one] | 50 to 250
6 | COc1cc(Cn2cnn(-c3ccc(-c4cn[nH]c4)cc3)c2=O)cc(OC)c1 [Example 49, 1-(4-(1H-pyrazol-4-yl)phenyl)-4-(3,5-dimethoxybenzyl)-1H-1,2,4-triazol-5(4H)-one] | 250 to 2000
7 | COc1ccc(F)cc1Cn1cnn(-c2ccc(-c3cn[nH]c3)cc2)c1=O [Example 52, 1-(4-(1H-pyrazol-4-yl)phenyl)-4-(5-fluoro-2-methoxybenzyl)-1H-1,2,4-triazol-5(4H)-one] | 250 to 2000
8 | COc1ccc(Cn2cnn(-c3ccc(-c4cn[nH]c4)cc3)c2=O)cc1F [Example 53, 1-(4-(1H-pyrazol-4-yl)phenyl)-4-(3-fluoro-4-methoxybenzyl)-1H-1,2,4-triazol-5(4H)-one] | 250 to 2000
9 | CCc1cc(-n2ncn(Cc3ccccc3)c2=O)ccc1-c1cn[nH]c1 [Example 54, 4-benzyl-1-(3-ethyl-4-(1H-pyrazol-4-yl)phenyl)-1H-1,2,4-triazol-5(4H)-one] | 50 to 250
10 | CCc1cc(-n2ncn(Cc3c(F)cccc3F)c2=O)ccc1-c1cn[nH]c1 [Example 57, 4-(2,6-difluorobenzyl)-1-(3-ethyl-4-(1H-pyrazol-4-yl)phenyl)-1H-1,2,4-triazol-5(4H)-one] | 250 to 2000
11 | Cc1nn(Cc2ccccc2)c(=O)n1-c1ccc(-c2cn[nH]c2)cc1 [Example 59, 4-(4-(1H-pyrazol-4-yl)phenyl)-1-benzyl-3-methyl-1H-1,2,4-triazol-5(4H)-one] | 250 to 2000
12 | COc1cc(-n2c(C)nn(Cc3ccccc3)c2=O)ccc1-c1cn[nH]c1 [Example 60, 1-benzyl-4-(3-methoxy-4-(1H-pyrazol-4-yl)phenyl)-3-methyl-1H-1,2,4-triazol-5(4H)-one] | 250 to 2000
13 | COc1cccc(Cn2nc(C)n(-c3ccc(-c4cn[nH]c4)c(OC)c3)c2=O)c1 [Example 61, 4-(3-methoxy-4-(1H-pyrazol-4-yl)phenyl)-1-(3-methoxybenzyl)-3-methyl-1H-1,2,4-triazol-5(4H)-one] | 50 to 250
14 | COc1cc(-n2c(C)nn(C(C)c3ccccc3)c2=O)ccc1-c1cn[nH]c1 (centres unmarked) [Example 62, 4-(3-methoxy-4-(1H-pyrazol-4-yl)phenyl)-3-methyl-1-(1-phenylethyl)-1H-1,2,4-triazol-5(4H)-one] | 250 to 2000
15 | COc1cc(-c2cn[nH]c2)ccc1-n1c(C)nn(Cc2ccccc2)c1=O [Example 63, 1-benzyl-4-(2-methoxy-4-(1H-pyrazol-4-yl)phenyl)-3-methyl-1H-1,2,4-triazol-5(4H)-one] | 250 to 2000
16 | COc1cccc(Cn2nc(C)n(-c3ccc(-c4cn[nH]c4)cc3OC)c2=O)c1 [Example 64, 4-(2-methoxy-4-(1H-pyrazol-4-yl)phenyl)-1-(3-methoxybenzyl)-3-methyl-1H-1,2,4-triazol-5(4H)-one] | 250 to 2000
17 | COc1cc(-n2c(C)nn(Cc3cccc(F)c3)c2=O)ccc1-c1cn[nH]c1 [Example 65, 1-(3-fluorobenzyl)-4-(3-methoxy-4-(1H-pyrazol-4-yl)phenyl)-3-methyl-1H-1,2,4-triazol-5(4H)-one] | 250 to 2000
18 | COc1cc(-n2c(C)nn(CCc3ccccc3)c2=O)ccc1-c1cn[nH]c1 [Example 66, 4-(3-methoxy-4-(1H-pyrazol-4-yl)phenyl)-3-methyl-1-phenethyl-1H-1,2,4-triazol-5(4H)-one] | 50 to 250
19 | Cc1nn(CCc2ccccc2)c(=O)n1-c1ccc(-c2cn[nH]c2)cc1 [Example 67, 4-(4-(1H-pyrazol-4-yl)phenyl)-3-methyl-1-phenethyl-1H-1,2,4-triazol-5(4H)-one] | 250 to 2000
20 | COc1cc(-n2c(C)nn(Cc3cc(F)ccc3F)c2=O)ccc1-c1cn[nH]c1 [Example 68, 1-(2,5-difluorobenzyl)-4-(3-methoxy-4-(1H-pyrazol-4-yl)phenyl)-3-methyl-1H-1,2,4-triazol-5(4H)-one] | 250 to 2000
21 | COc1cccc(Cn2nc(C)n(-c3ccc(-c4cn[nH]c4)cc3)c2=O)c1 [Example 69, 4-(4-(1H-pyrazol-4-yl)phenyl)-1-(3-methoxybenzyl)-3-methyl-1H-1,2,4-triazol-5(4H)-one] | 250 to 2000
22 | Cc1nn(Cc2cccc(F)c2)c(=O)n1-c1ccc(-c2cn[nH]c2)cc1 [Example 70, 4-(4-(1H-pyrazol-4-yl)phenyl)-1-(3-fluorobenzyl)-3-methyl-1H-1,2,4-triazol-5(4H)-one] | 250 to 2000
23 | Cc1nn(Cc2cc(F)ccc2F)c(=O)n1-c1ccc(-c2cn[nH]c2)cc1 [Example 71, 4-(4-(1H-pyrazol-4-yl)phenyl)-1-(2,5-difluorobenzyl)-3-methyl-1H-1,2,4-triazol-5(4H)-one] | 250 to 2000
24 | COc1cc(F)cc(Cn2nc(C)n(-c3ccc(-c4cn[nH]c4)cc3)c2=O)c1 [Example 72, 4-(4-(1H-pyrazol-4-yl)phenyl)-1-(3-fluoro-5-methoxybenzyl)-3-methyl-1H-1,2,4-triazol-5(4H)-one] | 250 to 2000

Other lines, results leading:

Row | IC50 [nM] | SMILES
25 | 5 to 50 | COc1cc(-n2ncn(Cc3ccccc3Cl)c2=O)ccc1-c1cn[nH]c1 [Example 32, 4-(2-chlorobenzyl)-1-(3-methoxy-4-(1H-pyrazol-4-yl)phenyl)-1H-1,2,4-triazol-5(4H)-one]
26 | 5 to 50 | O=c1n(Cc2c(F)cccc2F)cnn1-c1ccc(-c2cn[nH]c2)cc1 [Example 33, 1-(4-(1H-pyrazol-4-yl)phenyl)-4-(2,6-difluorobenzyl)-1H-1,2,4-triazol-5(4H)-one]
27 | 50 to 250 | N#Cc1cccc(Cn2cnn(-c3ccc(-c4cn[nH]c4)cc3)c2=O)c1 [Example 34, 3-((1-(4-(1H-pyrazol-4-yl)phenyl)-5-oxo-1H-1,2,4-triazol-4(5H)-yl)methyl)benzonitrile]
28 | 50 to 250 | COc1cc(-n2ncn(Cc3cccc(C#N)c3)c2=O)ccc1-c1cn[nH]c1 [Example 35, 3-((1-(3-methoxy-4-(1H-pyrazol-4-yl)phenyl)-5-oxo-1H-1,2,4-triazol-4(5H)-yl)methyl)benzonitrile]
29 | 5 to 50 | COc1cc(-n2ncn(Cc3cc(F)cc(F)c3)c2=O)ccc1-c1cn[nH]c1 [Example 36, 4-(3,5-difluorobenzyl)-1-(3-methoxy-4-(1H-pyrazol-4-yl)phenyl)-1H-1,2,4-triazol-5(4H)-one]
30 | 5 to 50 | COc1cc(-n2ncn(Cc3cccc(OC(F)F)c3)c2=O)ccc1-c1cn[nH]c1 [Example 37, 4-(3-(difluoromethoxy)benzyl)-1-(3-methoxy-4-(1H-pyrazol-4-yl)phenyl)-1H-1,2,4-triazol-5(4H)-one]
31 | 5 to 50 | COc1cc(-n2ncn(Cc3c(F)cccc3F)c2=O)ccc1-c1cn[nH]c1 [Example 39, 4-(2,6-difluorobenzyl)-1-(3-methoxy-4-(1H-pyrazol-4-yl)phenyl)-1H-1,2,4-triazol-5(4H)-one]
32 | 5 to 50 | CCc1cc(-n2ncn(Cc3cc(F)cc(OC)c3)c2=O)ccc1-c1cn[nH]c1 [Example 40, 1-(3-ethyl-4-(1H-pyrazol-4-yl)phenyl)-4-(3-fluoro-5-methoxybenzyl)-1H-1,2,4-triazol-5(4H)-one]
33 | 5 to 50 | CCc1cc(-n2ncn(Cc3cc(F)cc(F)c3)c2=O)ccc1-c1cn[nH]c1 [Example 44, 4-(3,5-difluorobenzyl)-1-(3-ethyl-4-(1H-pyrazol-4-yl)phenyl)-1H-1,2,4-triazol-5(4H)-one]
34 | 5 to 50 | CCc1cc(-n2ncn(Cc3cccc(OC)c3)c2=O)ccc1-c1cn[nH]c1 [Example 45, 1-(3-ethyl-4-(1H-pyrazol-4-yl)phenyl)-4-(3-methoxybenzyl)-1H-1,2,4-triazol-5(4H)-one]
35 | < 5 | COc1cc(Cn2cnn(-c3ccc(-c4cn[nH]c4)cc3)c2=O)ccc1F [Example 50, 4-[(4-fluoro-3-methoxyphenyl)methyl]-1-[4-(1H-pyrazol-4-yl)phenyl]-4,5-dihydro-1H-1,2,4-triazol-5-one]
36 | 5 to 50 | COc1cccc(Cn2cnn(-c3ccc(-c4cn[nH]c4)cc3)c2=O)c1F [Example 51, 1-(4-(1H-pyrazol-4-yl)phenyl)-4-(2-fluoro-3-methoxybenzyl)-1H-1,2,4-triazol-5(4H)-one]
37 | 5 to 50 | CCc1cc(-n2ncn(Cc3cccc(F)c3)c2=O)ccc1-c1cn[nH]c1 [Example 55, 1-(3-ethyl-4-(1H-pyrazol-4-yl)phenyl)-4-(3-fluorobenzyl)-1H-1,2,4-triazol-5(4H)-one]
38 | 5 to 50 | CCc1cc(-n2ncn(C(C)c3ccccc3)c2=O)ccc1-c1cn[nH]c1 (centres unmarked) [Example 58, 1-(3-ethyl-4-(1H-pyrazol-4-yl)phenyl)-4-(1-phenylethyl)-1H-1,2,4-triazol-5(4H)-one]
